Reference: ChEMBL document CHEMBL1201862, “PubChem BioAssay data set” (2004)
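Protocol summary: plate cells (96-well), add compound at 5 concentrations, incubate 48 h, interpolate endpoints linearly. GI50 marks 50% less growth.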 The source made the active and inactive calls. Rule as the data show it: active = GI50 up to about 1.1 µM and inactive = higher.

What was measured:
Assay in all cases: NCI-60 cell line screen, 48 h
786-0 = system: 786-0
A498 = system: A498
A549 = system: A549
ACHN = system: ACHN
CCRF-CEM = system: CCRF-CEM
COLO 205 = system: COLO 205
DMS-114 = system: DMS-114
DMS-273 = system: DMS-273
EKVX = system: EKVX
HCC 2998 = system: HCC 2998
HCT-116 = system: HCT-116
HCT-15 = system: HCT-15
HL-60 = system: HL-60
HOP-62 = system: HOP-62
HT-29 = system: HT-29
IGROV-1 = system: IGROV-1
K562 = system: K562
KM-20L2 = system: KM-20L2
LOX IMVI = system: LOX IMVI
LXFL 529 = system: LXFL 529
M14 = system: M14
M19-MEL = system: M19-MEL
MOLT-4 = system: MOLT-4
Malme-3M = system: Malme-3M
NCI-H226 = system: NCI-H226
NCI-H23 = system: NCI-H23
NCI-H460 = system: NCI-H460
OVCAR-3 = system: OVCAR-3
OVCAR-4 = system: OVCAR-4
OVCAR-8 = system: OVCAR-8
RPMI-8226 = system: RPMI-8226
RXF 393 = system: RXF 393
RXF 631 = system: RXF 631
SF-268 = system: SF-268
SF-295 = system: SF-295
SF-539 = system: SF-539
SK-MEL-28 = system: SK-MEL-28
SK-MEL-2 = system: SK-MEL-2
SK-MEL-5 = system: SK-MEL-5
SN12C = system: SN12C
SNB-19 = system: SNB-19
SNB-75 = system: SNB-75
SR = system: SR
SW-620 = system: SW-620
TK-10 = system: TK-10
U-251 = system: U-251
UACC-257 = system: UACC-257
UACC-62 = system: UACC-62
UO-31 = system: UO-31
XF498 = system: XF498
CAKI-1 = system: CAKI-1
DLD-1 = system: DLD-1
HOP-18 = system: HOP-18
HOP-92 = system: HOP-92
KM12 = system: KM12
NCI-H522 = system: NCI-H522
OVCAR-5 = system: OVCAR-5
SK-OV-3 = system: SK-OV-3
SNB-78 = system: SNB-78

CCN1C(C)=NC2C(=O)c3ccccc3C(=O)C21 (configuration not stated) was tested, and the GI50 (786-0) was 65.5 µM (inactive), the GI50 (A498) was > 100 µM (inactive) and the GI50 (A549) was 41.6 µM (inactive). For the same compound, the GI50 (ACHN) was 74.8 µM (inactive), the GI50 (CCRF-CEM) was 47 µM (inactive) and the GI50 (COLO 205) was 33.5 µM (inactive). The GI50 (DMS-114) was 32.2 µM (inactive), the GI50 (DMS-273) was 48.6 µM (inactive) and the GI50 (EKVX) was > 10 µM (inactive). The GI50 (HCC 2998) was 27.4 µM (inactive), the GI50 (HCT-116) was 36.2 µM (inactive) and the GI50 (HCT-15) was 57.4 µM. For the same compound, the GI50 (HL-60) was 37.8 µM (inactive), the GI50 (HOP-62) was 37.4 µM (inactive) and the GI50 (HT-29) was 28.8 µM (inactive). For the same compound, the GI50 (IGROV-1) was 38.1 µM (inactive), the GI50 (K562) was 78.9 µM (inactive) and the GI50 (KM-20L2) was 27.2 µM (inactive). For the same compound, the GI50 (LOX IMVI) was 46.9 µM (inactive), the GI50 (LXFL 529) was 94.4 µM (inactive) and the GI50 (M14) was 66.5 µM (inactive). The GI50 (M19-MEL) was 34.8 µM (inactive), the GI50 (MOLT-4) was 43 µM (inactive) and the GI50 (Malme-3M) was 40 µM (inactive). The GI50 (NCI-H226) was 63 µM (inactive), the GI50 (NCI-H23) was 50.7 µM (inactive) and the GI50 (NCI-H460) was 30.1 µM (inactive). For the same compound, the GI50 (OVCAR-3) was 27.4 µM (inactive), the GI50 (OVCAR-4) was 21 µM (inactive) and the GI50 (OVCAR-8) was 74.1 µM (inactive). The GI50 (RPMI-8226) was 55.7 µM (inactive), the GI50 (RXF 393) was > 100 µM (inactive) and the GI50 (RXF 631) was > 100 µM (inactive). For the same compound, the GI50 (SF-268) was 57.7 µM (inactive), the GI50 (SF-295) was 82.2 µM (inactive) and the GI50 (SF-539) was 40.3 µM (inactive). The GI50 (SK-MEL-28) was > 100 µM (inactive), the GI50 (SK-MEL-2) was > 100 µM (inactive) and the GI50 (SK-MEL-5) was 24.1 µM (inactive). The GI50 (SN12C) was 40.8 µM (inactive), the GI50 (SNB-19) was 81.7 µM (inactive) and the GI50 (SNB-75) was 37.8 µM (inactive). The GI50 (SR) was 52.5 µM (inactive), the GI50 (SW-620) was 32.6 µM (inactive) and the GI50 (TK-10) was > 100 µM (inactive). For the same compound, the GI50 (U-251) was > 100 µM (inactive), the GI50 (UACC-257) was 31.2 µM (inactive) and the GI50 (UACC-62) was 43 µM (inactive). For the same compound, the GI50 (UO-31) was > 100 µM (inactive) and the GI50 (XF498) was 42.5 µM (inactive).

For OCC1O[C@H](O[C@@H]2CCCN3CC(O)C(O)[C@@H]23)C(O)C(O)C1O (some centres not stated), the GI50 (A498) was > 100 µM (inactive), the GI50 (A549) was > 100 µM (inactive) and the GI50 (ACHN) was > 100 µM (inactive). For the same compound, the GI50 (CAKI-1) was > 100 µM (inactive), the GI50 (CCRF-CEM) was > 100 µM (inactive) and the GI50 (COLO 205) was > 100 µM (inactive). The GI50 (DLD-1) was > 100 µM (inactive), the GI50 (DMS-273) was > 100 µM (inactive) and the GI50 (EKVX) was > 100 µM (inactive). For the same compound, the GI50 (HCC 2998) was > 100 µM (inactive), the GI50 (HCT-116) was > 100 µM (inactive) and the GI50 (HCT-15) was over 100 µM. For the same compound, the GI50 (HL-60) was > 100 µM (inactive), the GI50 (HOP-18) was > 100 µM (inactive) and the GI50 (HOP-62) was > 100 µM (inactive). The GI50 (HOP-92) was > 100 µM (inactive), the GI50 (HT-29) was > 100 µM (inactive) and the GI50 (IGROV-1) was > 100 µM (inactive). The GI50 (K562) was > 100 µM (inactive), the GI50 (KM-20L2) was > 100 µM (inactive) and the GI50 (KM12) was > 100 µM (inactive). For the same compound, the GI50 (LXFL 529) was > 100 µM (inactive), the GI50 (M14) was > 100 µM (inactive) and the GI50 (M19-MEL) was > 100 µM (inactive). The GI50 (MOLT-4) was > 100 µM (inactive), the GI50 (Malme-3M) was > 100 µM (inactive) and the GI50 (NCI-H226) was > 100 µM (inactive). For the same compound, the GI50 (NCI-H23) was > 100 µM (inactive), the GI50 (NCI-H522) was > 100 µM (inactive) and the GI50 (OVCAR-3) was > 100 µM (inactive). The GI50 (OVCAR-4) was > 100 µM (inactive), the GI50 (OVCAR-5) was > 100 µM (inactive) and the GI50 (OVCAR-8) was > 100 µM (inactive). The GI50 (RXF 631) was > 100 µM (inactive), the GI50 (SF-268) was > 100 µM (inactive) and the GI50 (SF-295) was > 100 µM (inactive). For the same compound, the GI50 (SF-539) was > 100 µM (inactive), the GI50 (SK-MEL-28) was > 100 µM (inactive) and the GI50 (SK-MEL-2) was > 100 µM (inactive). For the same compound, the GI50 (SK-MEL-5) was > 100 µM (inactive), the GI50 (SK-OV-3) was > 100 µM (inactive) and the GI50 (SN12C) was > 100 µM (inactive). For the same compound, the GI50 (SNB-75) was > 100 µM (inactive), the GI50 (SNB-78) was > 100 µM (inactive) and the GI50 (SR) was > 100 µM (inactive). For the same compound, the GI50 (SW-620) was > 100 µM (inactive), the GI50 (TK-10) was > 100 µM (inactive) and the GI50 (U-251) was > 100 µM (inactive). The GI50 (UACC-257) was > 100 µM (inactive), the GI50 (UACC-62) was > 100 µM (inactive) and the GI50 (UO-31) was > 100 µM (inactive).

CCC(=O)O[C@@H]1C2C(OC(C)=O)C34COC(C)([C@@H]3C3C(C[C@]3(C)OC(C)=O)[C@@H](OC(=O)c3ccccc3)C4=O)[C@H](OC(C)=O)[C@@]2(OC(C)=O)C[C@@H]1C (some centres not stated) was tested, and the GI50 (786-0) was 11.7 µM (inactive), the GI50 (A549) was > 100 µM (inactive) and the GI50 (ACHN) was 36.1 µM (inactive). For the same compound, the GI50 (CAKI-1) was > 100 µM (inactive), the GI50 (CCRF-CEM) was 17.5 µM (inactive) and the GI50 (COLO 205) was 43.5 µM (inactive). The GI50 (DLD-1) was > 100 µM (inactive), the GI50 (DMS-114) was 23.3 µM (inactive) and the GI50 (DMS-273) was 44.1 µM (inactive). The GI50 (EKVX) was 87.1 µM (inactive), the GI50 (HCC 2998) was 64.7 µM (inactive) and the GI50 (HCT-116) was 30.7 µM (inactive). For the same compound, the GI50 (HCT-15) was 16 µM, the GI50 (HL-60) was 15.6 µM (inactive) and the GI50 (HOP-18) was > 100 µM (inactive). The GI50 (HOP-62) was 25.1 µM (inactive), the GI50 (HOP-92) was 14.7 µM (inactive) and the GI50 (HT-29) was > 100 µM (inactive). For the same compound, the GI50 (IGROV-1) was 13.7 µM (inactive), the GI50 (K562) was > 10 µM (inactive) and the GI50 (KM-20L2) was > 100 µM (inactive). The GI50 (KM12) was > 100 µM (inactive), the GI50 (LOX IMVI) was 32 µM (inactive) and the GI50 (LXFL 529) was 34.9 µM (inactive). For the same compound, the GI50 (M14) was 33.9 µM (inactive), the GI50 (M19-MEL) was 32.8 µM (inactive) and the GI50 (MOLT-4) was > 100 µM (inactive). The GI50 (Malme-3M) was 36.6 µM (inactive), the GI50 (NCI-H226) was 20 µM (inactive) and the GI50 (NCI-H23) was 14.9 µM (inactive). The GI50 (NCI-H460) was > 100 µM (inactive), the GI50 (NCI-H522) was 37.1 µM (inactive) and the GI50 (OVCAR-3) was 21.6 µM (inactive). The GI50 (OVCAR-4) was 21.1 µM (inactive), the GI50 (OVCAR-5) was 94.4 µM (inactive) and the GI50 (OVCAR-8) was 95.5 µM (inactive). The GI50 (RPMI-8226) was > 100 µM (inactive), the GI50 (RXF 631) was 86.1 µM (inactive) and the GI50 (SF-268) was 44.1 µM (inactive). For the same compound, the GI50 (SF-295) was 12.4 µM (inactive), the GI50 (SF-539) was 14.9 µM (inactive) and the GI50 (SK-MEL-28) was > 100 µM (inactive). The GI50 (SK-MEL-2) was 79.4 µM (inactive), the GI50 (SK-MEL-5) was 13.5 µM (inactive) and the GI50 (SK-OV-3) was 15.7 µM (inactive). The GI50 (SN12C) was > 100 µM (inactive), the GI50 (SNB-19) was 14 µM (inactive) and the GI50 (SNB-75) was 3.01 µM (inactive). For the same compound, the GI50 (SNB-78) was 5.5 µM (inactive), the GI50 (SR) was 54.1 µM (inactive) and the GI50 (SW-620) was 47.8 µM (inactive). For the same compound, the GI50 (TK-10) was 15.1 µM (inactive), the GI50 (U-251) was 10.4 µM (inactive) and the GI50 (UACC-257) was 87.9 µM (inactive). The GI50 (UACC-62) was 75.9 µM (inactive) and the GI50 (UO-31) was 59.8 µM (inactive).
